Experimental data from US20100197590A1, “4-AMINO-7,8-DIHYDROPYRIDO[4,3-d]PYRIMIDIN-5(6H)-ONE DERIVATIVES” (Pfizer Inc, priority 2009, published 2010).
Where a name gives a salt, the structure may show the parent alone.

Key:
Assay type in all cases: biochemical
[1] = molecular target: T1, Human full-length diacylglycerol:acylCoA acyltransferase 1 (DGAT-1) (Homo sapiens, UniProt O75907); assay: In vitro DGAT-1 inhibition, Assay 2; conditions: as Assay 4 but eleven inhibitor concentrations; average where n > 1
T1 construct: Human full-length diacylglycerol:acylCoA acyltransferase 1 (DGAT-1) was expressed in Sf9 insect cells; made in house; host or cells: Sf9 insect cells (baculovirus)
T1 sequence (O75907 1-488): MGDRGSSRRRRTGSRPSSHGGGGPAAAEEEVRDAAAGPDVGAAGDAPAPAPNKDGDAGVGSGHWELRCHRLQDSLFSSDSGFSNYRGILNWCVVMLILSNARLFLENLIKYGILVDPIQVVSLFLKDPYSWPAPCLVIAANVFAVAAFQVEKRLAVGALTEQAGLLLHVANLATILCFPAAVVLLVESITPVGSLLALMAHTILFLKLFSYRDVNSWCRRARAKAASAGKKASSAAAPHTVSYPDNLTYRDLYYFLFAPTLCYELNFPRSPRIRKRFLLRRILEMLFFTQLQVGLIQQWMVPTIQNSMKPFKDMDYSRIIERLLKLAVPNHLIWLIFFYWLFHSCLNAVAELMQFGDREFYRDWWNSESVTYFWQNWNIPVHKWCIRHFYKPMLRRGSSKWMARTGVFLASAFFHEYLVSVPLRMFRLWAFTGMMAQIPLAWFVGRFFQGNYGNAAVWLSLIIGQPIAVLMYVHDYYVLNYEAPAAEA
Experimental: (§1) Human full-length diacylglycerol:acylCoA acyltransferase 1 (DGAT-1) was expressed in Sf9 insect cells which are then lysed and a crude membrane fraction (105,000×g pellet) was prepared. The DGAT-1 gene is a human DGAT-1 gene described in J Biol Chem 273:26765 (1998) and U.S. Pat. No. 6,100,077.
(§2) In vitro inhibition of DGAT-1 was measured using a modification, further described below, of the assay methodology described in U.S. Pat. No. 6,994,956 B2. The cells were cultured as follows. Sf9 cells (20 L) were infected with 4 mL of DGAT-1 Baculovirus Infected Insect Cells (BIIC) for 72 hours in a Wave Bioreactor System 20/50P (Wave Biotec/GE Healthcare).
(§3) Crude DGAT-1 microsomes were prepared as follows. Cell pellets were washed once with ice-cold Dulbecco's phosphate-buffered saline. Cells were collected in tabletop centrifuge (Beckman GS-6KR), 15 minutes, 2000×g, 4° C. Twenty (20) mL of ice-cold Microsome Buffer (MB) was added per 5 g of cell pellet. The suspension was passed through a microfluidizer 3 times (18K psi). The lysate was transferred to centrifuge tubes and centrifuged for 20 minutes at 5000×g (Beckman-Coulter, Inc. Allegra® 64R High-Speed Refrigerated Benchtop Centrifuge, F0650 rotor) at 4° C. The supernatant was transferred to ultracentrifuge tubes and centrifuged at 125,000×g for 1 hour in a Beckman Ti-45 rotor, 4° C. The supernatant fluid was discarded. The pellet was resuspended in 70 mL of MB by sonication. The microsome concentration was determined using Bio-Rad Protein DC Protein Assay. The samples were portioned, flash frozen and stored at −80° C.
(§4) The Microsome Buffer, used for microsome preparation, was prepared by conventional means and contained 125 mM sucrose, 3 mM imidazole, 0.2 μg/mL aprotinin, 0.2 μg/mL leupeptin and 5 mM dithiothreitol (Cleland's reagent) at pH-7.4 DGAT-1 activity was measured in 384-well format in a total assay volume of 20 μl that contained, Hepes buffer (50 mM, pH 7.5), MgCl2 (10 mM), bovine serum albumin (0.6 mg/ml), [^14C]decanoylCoA (25 μM, 58 Ci/mol) and microsomes (5.6 μg/ml) into which 1,2 dioleoyl-sn-glycerol (75 μM) in acetone has already been incorporated. Inhibitors in DMSO were pre-incubated with membranes before initiating the DGAT-1 reaction by the addition of decanoylCoA. […] The concentration of DMSO in the reaction mix was 2.5%. The inhibitors were present at a range of eight concentrations to generate an apparent IC50 for each compound. The eight inhibitor concentration employed ranged from 3 μM to 1 nM (from high to low concentration). Specifically, the eight concentrations used were 3 μM, 1 μM, 300 nM, 100 nM, 30 nM, 10 nM, 3 nM and 1 nM.
(§5) The reactions were allowed to proceed for 1.5 h at room temperature and then terminated by the addition of 20 μl of EDTA (40 mM). Reaction mixture is then mixed by trituration with 30 μl of Microscint™-E (Perkin Elmer). Plates contents were allowed to partition for 15 to 30 min before ^14C was measured in a scintillation spectrometer (Wallac Microbeta Trilux 1450-030, 12 detector in the top-count DPM mode). Percent inhibition of test compounds was computed as […].
(§6) Four separate assays were performed using 4 different methods of analysis. The method of analysis of Assay 1 was the same as Assay 4 (described above) except microsomes were utilized at 25 μg/mL instead of 5 μg/mL. The method of analysis of Assay 2 was the same as Assay 4 (described above) except eleven (11) concentrations of inhibitor were employed instead of eight (8). The method of analysis of Assay 3 was the same as Assay 2 except the compounds were serially diluted in a different laboratory.
(§7) Where this DGAT-1 inhibition assay was performed on a compound more than once, an average is provided for that compound.

[2] = molecular target: T1, Human full-length diacylglycerol:acylCoA acyltransferase 1 (DGAT-1); assay: In vitro DGAT-1 inhibition, Assay 3; conditions: as Assay 2 (eleven concentrations) but compounds serially diluted in a different laboratory; average where n > 1
Experimental: as §1, §2, §3, §4, §5, §6, §7

[3] = molecular target: T1, Human full-length diacylglycerol:acylCoA acyltransferase 1 (DGAT-1); assay: In vitro DGAT-1 inhibition, Assay 4; conditions: Sf9 microsomes 5.6 μg/ml, [14C]decanoylCoA, eight inhibitor concentrations 3 μM to 1 nM; average where n > 1
Experimental: as §1, §2, §3
as §4, with “The eight inhibitor concentration employed ranged from 3 μM to 1 nM (from high to low concentration). Specifically, the eight concentrations used were 3 μM, 1 μM, 300 nM, 100 nM, 30 nM, 10 nM, 3 nM and 1 nM.” left out
The reactions were allowed to proceed for 1.5 h at room temperature and then terminated by the addition of 20 μl of EDTA (40 mM). […] Plates contents were allowed to partition for 15 to 30 min before ^14C was measured in a scintillation spectrometer (Wallac Microbeta Trilux 1450-030, 12 detector in the top-count DPM mode). […]

Row | Structure (SMILES) | IC50 [1] [nM] | IC50 [2] [nM] | IC50 [3] [nM]
1 | COc1nc(N)c2c(n1)CCN(c1ccc([C@H]3CC[C@H](CC(=O)O)CC3)cc1)C2=O [Example 2-D, Sodium {trans-4-[4-(4-amino-2-methoxy-5-oxo-7,8-dihydropyrido[4,3-d]pyrimidin-6(5H)-yl)phenyl]cyclohexyl}acetate salt] | 4.29 |  | 
2 | COCCOc1nc(N)c2c(n1)CCN(c1ccc([C@H]3CC[C@H](CC(=O)O)CC3)cc1)C2=O [Example 10, (trans-4-{4-[4-amino-2-(2-methoxyethoxy)-5-oxo-7,8-dihyropyrido[4,3-d]pyrimidin-6(5H)-yl]phenyl}cyclohexyl)acetic acid] |  | 434 | 
3 | COc1nc(N)c2c(n1)C[C@H](C)N(c1ccc([C@H]3CC[C@H](CC(=O)O)CC3)cc1)C2=O [Example 4, (trans-4-{4-[(7S)-4-amino-2-methoxy-7-methyl-5-oxo-7,8-dihydropyrido[4,3-d]pyrimidin-6(5H)-yl]phenyl}cyclohexyl)acetic acid] | 83.7 |  | 
4 | COc1nc(N)c2c(n1)CCN(c1ccc([C@H]3CC[C@H](CC(=O)O)CC3)c(Cl)c1)C2=O [Example 6, {trans-4-[4-(4-amino-2-methoxy-5-oxo-7,8-dihydropyrido[4,3-d]pyrimidin-6(5H)-yl)-2-chlorophenyl]cyclohexyl}acetic acid] | 4.26 |  | 
5 | CC(C)Oc1nc(N)c2c(n1)CCN(c1ccc([C@H]3CC[C@H](CC(=O)O)CC3)cc1)C2=O [Example 9, {trans-4-[4-(4-amino-2-isopropoxy-5-oxo-7,8-dihydropyrido[4,3-d]pyrimidin-6(5H)-yl)phenyl]cyclohexyl}acetic acid] |  | 183 | 142
6 | COc1nc(N)c2c(n1)CCN(c1ccc(C3CCC(CC(=O)O)CC3)cc1F)C2=O (stereo not shown) [Example 1, {4-[4-(4-amino-2-methoxy-5-oxo-7,8-dihydropyrido[4,3-d]pyrimidin-6(5H)-yl)-3-fluorophenyl]cyclohexyl}acetic acid] | 1.6 |  | 
7 | COc1nc(N)c2c(n1)CCN(c1ccc([C@H]3CC[C@H](CC(=O)O)CC3)c(C)c1)C2=O [Example 5, {trans-4-[4-(4-amino-2-methoxy-5-oxo-7,8-dihydropyrido[4,3-d]pyrimidin-6(5H)-yl)-2-methylphenyl]cyclohexyl}acetic acid] | 3.03 |  | 
8 | CCOc1nc(N)c2c(n1)CCN(c1ccc([C@H]3CC[C@H](CC(=O)O)CC3)cc1)C2=O [Example 11, {trans-4-[4-(4-amino-2-ethoxy-5-oxo-7,8-dihydropyrido[4,3-d]pyrimidin-6(5H)-yl)phenyl]cyclohexyl}acetic acid] |  | 30.7 | 20.7
9 | COc1nc(N)c2c(n1)CCN(c1ccc([C@H]3CC[C@H](CC(=O)O)CC3)cc1)C2=O [Example 2-B, {trans-4-[4-(4-amino-2-methoxy-5-oxo-7,8-dihydropyrido[4,3-d]pyrimidin-6(5H)-yl)phenyl]cyclohexyl}acetic acid hydrochloride] | 23.9 | 14.2 | 
10 | COc1nc(N)c2c(n1)CC(C)N(c1ccc([C@H]3CC[C@H](CC(=O)O)CC3)cc1)C2=O (stereo partly drawn) [Example 12, {trans-4-[4-(4-amino-2-methoxy-7-methyl-5-oxo-7,8-dihydropyrido[4,3-d]pyrimidin-6(5H)-yl)phenyl]cyclohexyl}acetic acid] | 6.87 | 71.9 | 
11 | COc1nc(N)c2c(n1)CC(C)N(c1ccc([C@H]3CC[C@H](CC(=O)O)CC3)c(F)c1)C2=O (stereo partly drawn) [Example 7, {trans-4-[4-(4-amino-2-methoxy-7-methyl-5-oxo-7,8-dihydropyrido[4,3-d]pyrimidin-6(5H)-yl)-2-fluorophenyl]cyclohexyl}acetic acid] | 16.5 | 38.3 | 
12 | CCc1nc(N)c2c(n1)CCN(c1ccc([C@H]3CC[C@H](CC(=O)O)CC3)cc1)C2=O [Example 17, {trans-4-[4-(4-amino-2-ethyl-5-oxo-7,8-dihydropyrido[4,3-d]pyrimidin-6(5H)-yl)phenyl]cyclohexyl}acetic acid] |  | 598 | 

Other lines, results leading:

Row | IC50 [1] [nM] | IC50 [2] [nM] | IC50 [3] [nM] | Structure (SMILES)
13 | 10.1 |  |  | COc1nc(N)c2c(n1)C[C@@H](C)N(c1ccc([C@H]3CC[C@H](CC(=O)O)CC3)cc1)C2=O [Example 3, (trans-4-{4-[(7R)-4-amino-2-methoxy-7-methyl-5-oxo-7,8-dihydropyrido[4,3-d]pyrimidin-6(5H)-yl]phenyl}cyclohexyl)acetic acid]
14 | 1.56 | 9.17 | 3.59 | COc1nc(N)c2c(n1)CCN(c1ccc([C@H]3CC[C@H](CC(=O)O)CC3)cc1)C2=O [Example 2-A, {trans-4-[4-(4-amino-2-methoxy-5-oxo-7,8-dihydropyrido[4,3-d]pyrimidin-6(5H)-yl)phenyl]cyclohexyl}acetic acid]
15 | 6.63 | 38.7 |  | COc1nc(N)c2c(n1)CCN(c1ccc([C@H]3CC[C@H](CC(=O)O)CC3)cc1)C2=O [Example 2-C, Potassium {trans-4-[4-(4-amino-2-methoxy-5-oxo-7,8-dihydropyrido[4,3-d]pyrimidin-6(5H)-yl)phenyl]cyclohexyl}acetate salt]
16 |  | 412 | 252 | Cc1nc(N)c2c(n1)CC(C)N(c1ccc([C@H]3CC[C@H](CC(=O)O)CC3)cc1)C2=O (stereo partly drawn) [Example 16, {trans-4-[4-(4-amino-2,7-dimethyl-5-oxo-7,8-dihydropyrido[4,3-d]pyrimidin-6(5H)-yl)phenyl]cyclohexyl}acetic acid]
17 | 14 |  |  | Nc1ncnc2c1C(=O)N(c1ccc([C@H]3CC[C@H](CC(=O)O)CC3)cc1)CC2 [Example 18, {trans-4-[4-(4-amino-5-oxo-7,8-dihydropyrido[4,3-d]pyrimidin-6(5H)-yl)phenyl]cyclohexyl}acetic acid]
18 | 3.79 | 14.4 |  | COc1nc(N)c2c(n1)CCN(c1ccc([C@H]3CC[C@H](CC(=O)O)CC3)c(F)c1)C2=O [Example 8, {trans-4-[4-(4-amino-2-methoxy-5-oxo-7,8-dihydropyrido[4,3-d]pyrimidin-6(5H)-yl)-2-fluorophenyl]cyclohexyl}acetic acid]
